We go through 20 compounds from ChEMBL document CHEMBL1143778, “Studies towards the identification of a new generation of atypical antipsychotic agents” (Bioorg Med Chem Lett, 2007).

Molecules are shown by their SMILES. “And” between values parts separate entries of the source, which are not always exact repeats. Identical values can stand only once.

Data set [1] concerns the target T1, D(3) dopamine receptor (Homo sapiens, UniProt P35462). In words: Displacement of [125I]iodosulpiride from human recombinant dopamine D3 receptor expressed in CHO cells. Type of data set: cell-based. (In general: Displacement assays read how much labelled ligand stays bound in the presence of the test substance.)
The target of data set [2] is T2, D(2) dopamine receptor (Homo sapiens, UniProt P14416). The experiment in a line: Displacement of [125I]iodosulpiride from human recombinant dopamine D2 receptor expressed in CHO cells. Type of data set: cell-based.
T2 sequence (P14416 whole entry): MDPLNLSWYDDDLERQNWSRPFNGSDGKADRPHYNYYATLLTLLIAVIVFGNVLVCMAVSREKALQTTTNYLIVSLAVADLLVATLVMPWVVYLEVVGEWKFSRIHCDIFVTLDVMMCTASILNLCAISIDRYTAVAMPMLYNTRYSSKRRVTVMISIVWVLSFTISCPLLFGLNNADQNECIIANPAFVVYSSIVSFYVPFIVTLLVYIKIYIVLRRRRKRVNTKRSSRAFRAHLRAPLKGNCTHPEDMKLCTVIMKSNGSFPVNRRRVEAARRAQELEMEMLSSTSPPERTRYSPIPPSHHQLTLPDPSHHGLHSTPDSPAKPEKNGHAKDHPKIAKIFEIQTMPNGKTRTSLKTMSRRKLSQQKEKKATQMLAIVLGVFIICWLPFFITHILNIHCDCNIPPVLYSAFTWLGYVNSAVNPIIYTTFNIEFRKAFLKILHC
For data set [3], the target named is T3, 5-hydroxytryptamine receptor 2A (Homo sapiens, UniProt P28223). The experiment in a line: Displacement of radioligand from human recombinant 5HT2A receptor.
T3 sequence (P28223 whole entry): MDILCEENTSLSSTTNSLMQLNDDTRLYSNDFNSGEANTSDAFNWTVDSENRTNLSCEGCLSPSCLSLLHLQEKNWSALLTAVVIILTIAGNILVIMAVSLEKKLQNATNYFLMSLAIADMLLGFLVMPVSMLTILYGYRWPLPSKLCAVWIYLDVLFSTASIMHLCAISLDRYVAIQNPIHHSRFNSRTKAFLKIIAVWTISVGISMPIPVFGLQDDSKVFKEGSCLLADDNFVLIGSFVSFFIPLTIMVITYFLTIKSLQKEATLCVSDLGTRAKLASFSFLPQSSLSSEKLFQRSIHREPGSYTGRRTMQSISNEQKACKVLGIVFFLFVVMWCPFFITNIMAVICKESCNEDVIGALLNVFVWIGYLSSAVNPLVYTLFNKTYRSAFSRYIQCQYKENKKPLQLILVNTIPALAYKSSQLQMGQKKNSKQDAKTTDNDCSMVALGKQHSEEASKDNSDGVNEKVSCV
Data set [4] addresses T4, 5-hydroxytryptamine receptor 2C (Homo sapiens, UniProt P28335).
T4 sequence (P28335 whole entry): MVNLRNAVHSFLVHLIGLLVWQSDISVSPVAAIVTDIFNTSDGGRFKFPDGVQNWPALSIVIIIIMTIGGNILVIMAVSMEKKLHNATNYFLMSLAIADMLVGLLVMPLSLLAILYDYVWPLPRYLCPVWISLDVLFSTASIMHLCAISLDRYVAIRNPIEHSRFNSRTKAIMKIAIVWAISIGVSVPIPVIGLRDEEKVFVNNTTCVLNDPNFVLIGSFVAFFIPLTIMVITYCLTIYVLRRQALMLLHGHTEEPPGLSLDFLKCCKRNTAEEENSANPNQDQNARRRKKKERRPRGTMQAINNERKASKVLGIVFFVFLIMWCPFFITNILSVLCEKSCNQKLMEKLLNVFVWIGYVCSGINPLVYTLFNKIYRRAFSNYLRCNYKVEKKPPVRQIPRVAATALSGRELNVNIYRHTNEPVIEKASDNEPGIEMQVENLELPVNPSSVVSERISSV
In words: Displacement of radioligand from human recombinant 5HT2C receptor.

Data set [5] addresses T5, 5-hydroxytryptamine receptor 6 (Homo sapiens, UniProt P50406). In words: Displacement of radioligand from human recombinant 5HT6 receptor.
For another data set, the target named is Cytochrome P450 2C19 (Homo sapiens, UniProt P33261). The experiment in a line: Inhibition of CYP2C19. Format: ADME.
Cytochrome P450 2C19, sequence (P33261 whole entry): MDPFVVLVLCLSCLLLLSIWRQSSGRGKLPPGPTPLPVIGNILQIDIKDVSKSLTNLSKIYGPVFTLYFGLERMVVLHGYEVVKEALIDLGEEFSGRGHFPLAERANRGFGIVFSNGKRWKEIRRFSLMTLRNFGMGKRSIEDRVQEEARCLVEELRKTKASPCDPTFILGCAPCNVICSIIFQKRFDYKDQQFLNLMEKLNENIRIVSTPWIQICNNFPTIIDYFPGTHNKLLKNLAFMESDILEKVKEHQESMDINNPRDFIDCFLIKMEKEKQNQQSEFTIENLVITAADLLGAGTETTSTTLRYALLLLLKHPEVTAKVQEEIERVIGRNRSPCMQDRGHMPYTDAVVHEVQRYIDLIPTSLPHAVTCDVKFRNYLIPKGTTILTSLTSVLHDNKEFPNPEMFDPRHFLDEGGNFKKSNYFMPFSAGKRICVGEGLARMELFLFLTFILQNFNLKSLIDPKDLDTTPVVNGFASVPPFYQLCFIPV
The target in another data set is Cytochrome P450 2C9 (Homo sapiens, UniProt P11712). The experiment in a line: Inhibition of CYP2C9. Format: ADME.
Cytochrome P450 2C9, sequence (P11712 whole entry): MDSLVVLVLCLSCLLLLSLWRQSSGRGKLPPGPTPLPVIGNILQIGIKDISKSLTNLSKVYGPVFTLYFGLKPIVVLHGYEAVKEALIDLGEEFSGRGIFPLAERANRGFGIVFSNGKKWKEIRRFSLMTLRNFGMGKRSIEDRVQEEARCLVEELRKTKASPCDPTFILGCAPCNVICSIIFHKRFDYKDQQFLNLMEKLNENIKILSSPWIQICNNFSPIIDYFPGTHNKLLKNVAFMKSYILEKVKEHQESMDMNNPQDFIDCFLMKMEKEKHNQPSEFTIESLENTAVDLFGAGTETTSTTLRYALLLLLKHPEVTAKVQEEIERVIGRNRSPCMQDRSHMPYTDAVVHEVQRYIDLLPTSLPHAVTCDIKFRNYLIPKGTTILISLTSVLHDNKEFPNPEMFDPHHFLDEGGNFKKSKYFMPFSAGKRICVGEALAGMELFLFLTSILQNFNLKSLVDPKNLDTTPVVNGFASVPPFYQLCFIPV
The next data set deals with Cytochrome P450 2D6 (Homo sapiens, UniProt P10635). In words: Inhibition of CYP2D6. Type of data set: ADME.
Cytochrome P450 2D6, sequence (P10635 whole entry): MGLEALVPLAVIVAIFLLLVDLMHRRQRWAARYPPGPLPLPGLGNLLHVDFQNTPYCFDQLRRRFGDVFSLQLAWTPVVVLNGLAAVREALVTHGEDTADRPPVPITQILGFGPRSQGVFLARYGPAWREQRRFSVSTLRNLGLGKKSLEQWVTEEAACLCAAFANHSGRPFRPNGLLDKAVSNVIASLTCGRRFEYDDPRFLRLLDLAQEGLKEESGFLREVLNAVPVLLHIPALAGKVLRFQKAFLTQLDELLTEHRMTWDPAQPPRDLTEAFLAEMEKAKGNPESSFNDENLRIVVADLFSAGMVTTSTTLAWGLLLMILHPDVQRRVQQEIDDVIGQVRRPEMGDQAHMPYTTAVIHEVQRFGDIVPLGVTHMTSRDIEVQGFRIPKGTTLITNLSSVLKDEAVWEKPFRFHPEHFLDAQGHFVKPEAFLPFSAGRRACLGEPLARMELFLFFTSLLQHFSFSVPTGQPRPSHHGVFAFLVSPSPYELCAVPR
For the next data set, the target named is Cytochrome P450 3A4 (Homo sapiens, UniProt P08684). In words: Inhibition of CYP3A4. Format: ADME.
Cytochrome P450 3A4, sequence (P08684 whole entry): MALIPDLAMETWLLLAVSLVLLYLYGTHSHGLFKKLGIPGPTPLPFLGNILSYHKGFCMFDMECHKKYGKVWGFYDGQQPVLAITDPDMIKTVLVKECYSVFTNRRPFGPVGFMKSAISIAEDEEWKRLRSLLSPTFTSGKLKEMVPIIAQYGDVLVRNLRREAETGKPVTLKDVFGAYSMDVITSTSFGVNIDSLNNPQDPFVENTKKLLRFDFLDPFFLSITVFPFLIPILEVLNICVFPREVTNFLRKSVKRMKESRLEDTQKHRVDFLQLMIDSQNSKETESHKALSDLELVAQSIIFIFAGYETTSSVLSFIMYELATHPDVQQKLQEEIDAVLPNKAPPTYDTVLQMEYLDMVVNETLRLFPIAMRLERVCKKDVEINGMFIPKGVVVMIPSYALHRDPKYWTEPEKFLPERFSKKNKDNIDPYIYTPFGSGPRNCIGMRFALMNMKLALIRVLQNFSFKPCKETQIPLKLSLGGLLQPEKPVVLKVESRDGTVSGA
The target in another data set is T6, Cytochrome P450 1A2 (Homo sapiens, UniProt P05177).
T6 sequence (P05177 whole entry): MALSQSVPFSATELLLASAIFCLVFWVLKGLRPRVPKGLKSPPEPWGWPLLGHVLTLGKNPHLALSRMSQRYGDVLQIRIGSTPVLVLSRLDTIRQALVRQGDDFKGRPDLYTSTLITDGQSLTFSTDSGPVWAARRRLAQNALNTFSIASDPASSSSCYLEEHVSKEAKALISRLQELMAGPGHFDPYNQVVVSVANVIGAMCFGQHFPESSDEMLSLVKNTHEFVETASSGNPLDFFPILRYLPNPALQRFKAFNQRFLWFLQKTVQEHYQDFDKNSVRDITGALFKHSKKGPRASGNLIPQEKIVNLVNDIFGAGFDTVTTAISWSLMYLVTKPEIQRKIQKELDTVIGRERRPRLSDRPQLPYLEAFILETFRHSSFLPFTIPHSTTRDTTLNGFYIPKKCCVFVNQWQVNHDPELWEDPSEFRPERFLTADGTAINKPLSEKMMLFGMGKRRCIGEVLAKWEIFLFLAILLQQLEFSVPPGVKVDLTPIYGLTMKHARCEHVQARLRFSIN
The experiment in a line: Inhibition of CYP1A2. Format: ADME.

Data set [6] addresses T1, D(3) dopamine receptor. The experiment in a line: Agonist activity at human dopamine D3 receptor by [35S]GTP-gamma-S binding assay. Format: functional. Background: GTPγS is a poorly hydrolysed GTP analogue; its binding reports G protein activation.
Data set [7] addresses T2, D(2) dopamine receptor. In words: Agonist activity at human dopamine D2 receptor by [35S]GTPgammaS binding assay. Type of data set: functional.
Data set [8] relates to Rattus norvegicus. The experiment in a line: Reversal of amphetamine-induced hyperactivity in orally dosed rat. Format: functional. To be noted: po.
The subject of data set [9] is Rattus norvegicus. In words: Toxicity assessed as induction of catalepsy in rat model of extra-pyramidal side effect up to 100 mg/kg, po. The note with it: in vivo. Type of data set: organism-based. The arrangement: dose 100 mg/kg, route oral.
For data set [10], the target named is T3, 5-hydroxytryptamine receptor 2A. In words: Agonist activity at human 5HT2A receptor by FLIPR assay. Format: functional.
Data set [11] concerns the target T4, 5-hydroxytryptamine receptor 2C. The experiment in a line: Agonist activity at human 5HT2C receptor by FLIPR assay. Format: functional.
For data set [12], the target named is T5, 5-hydroxytryptamine receptor 6. The experiment in a line: Agonist activity at human 5HT6 receptor by cAMP assay. Format: functional. (cAMP levels reflect the balance of adenylyl cyclase and phosphodiesterase activity.)

T1 sequence (P35462 whole entry): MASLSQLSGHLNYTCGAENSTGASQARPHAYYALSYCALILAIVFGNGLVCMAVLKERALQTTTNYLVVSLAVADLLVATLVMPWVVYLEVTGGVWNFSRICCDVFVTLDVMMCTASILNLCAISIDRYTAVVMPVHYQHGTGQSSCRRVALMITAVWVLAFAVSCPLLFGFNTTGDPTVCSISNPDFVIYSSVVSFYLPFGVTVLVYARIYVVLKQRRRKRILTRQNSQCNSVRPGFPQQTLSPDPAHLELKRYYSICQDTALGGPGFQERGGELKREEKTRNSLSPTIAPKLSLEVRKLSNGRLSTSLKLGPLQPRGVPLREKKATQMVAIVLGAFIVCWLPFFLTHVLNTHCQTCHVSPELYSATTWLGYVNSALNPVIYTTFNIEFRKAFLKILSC
T5 sequence (P50406 whole entry): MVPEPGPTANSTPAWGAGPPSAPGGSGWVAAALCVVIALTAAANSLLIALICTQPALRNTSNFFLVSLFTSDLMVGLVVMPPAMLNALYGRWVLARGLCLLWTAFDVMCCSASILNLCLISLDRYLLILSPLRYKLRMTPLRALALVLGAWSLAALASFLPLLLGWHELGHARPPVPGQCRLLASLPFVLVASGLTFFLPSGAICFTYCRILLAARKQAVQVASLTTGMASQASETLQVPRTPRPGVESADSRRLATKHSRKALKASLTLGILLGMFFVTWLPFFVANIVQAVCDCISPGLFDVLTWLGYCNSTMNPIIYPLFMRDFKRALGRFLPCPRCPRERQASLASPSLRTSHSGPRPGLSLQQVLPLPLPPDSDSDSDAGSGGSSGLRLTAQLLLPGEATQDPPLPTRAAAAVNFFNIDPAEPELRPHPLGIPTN

The term Ki denotes a measure of affinity in units of concentration, obtained from inhibition or displacement. As to `CCCCc1ccc(S(=O)(=O)Nc2ccc3c(c2)CN(C)C3)cc1`, the inhibition constant (Ki) on D(3) dopamine receptor [1] is 20 nM; on D(2) dopamine receptor [2], 200 nM; in data set [3] it was 5.01 nM; in data set [4], 10 nM; in data set [5], 5.01 nM.
Turning to `Cc1ccc(-c2ccc(S(=O)(=O)Nc3ccc4c(c3)CCN(C)CC4)cc2)s1`, the Ki at D(3) dopamine receptor [1] was 25.1 nM; on D(2) dopamine receptor [2] it was 316 nM; in data set [3], 50.1 nM; in [4], 12.6 nM; in data set [5], 6.31 nM.
Regarding `COc1cc2c(cc1NS(=O)(=O)c1ccc(-c3ccc(Cl)cc3)cc1)CCN(C)CC2`, the Ki on D(3) dopamine receptor [1] was 0.794 nM; at D(2) dopamine receptor [2], 3.98 nM; in data set [3], 25.1 nM; in [4], 39.8 nM; in data set [5], 10 nM.
As to `CCCCc1ccc(S(=O)(=O)Nc2ccc3c(c2)CNC3)cc1`, the inhibition constant (Ki) was 39.8 nM on D(3) dopamine receptor [1], 794 nM at D(2) dopamine receptor [2] and 50.1 nM in data set [5].
Consider `CC(C)Oc1cc2c(cc1NS(=O)(=O)c1ccc(-c3ccc(Cl)cc3)cc1)CCN(C)CC2`, for which the Ki at D(3) dopamine receptor [1] is 0.794 nM; on D(2) dopamine receptor [2], 6.31 nM; in data set [3], 15.8 nM; in data set [4], 39.8 nM; in data set [5] it was 31.6 nM.
In general, IC50 refers to the point on the concentration scale where inhibition reaches its midpoint. Low values mean higher potency, high ones lower potency. In the case of `CN1CCc2ccc(NS(=O)(=O)c3ccc(-c4ccc(Cl)cc4)cc3)cc2CC1`, the Ki is 15.8 nM at D(3) dopamine receptor [1]; 158 nM on D(2) dopamine receptor [2]; 200 nM in data set [3]; 20 nM in [4]; 5.01 nM in [5]. Further, the IC50 against Cytochrome P450 2C19 was found to be 16000 nM; against Cytochrome P450 2C9, 45000 nM; against Cytochrome P450 2D6, 1500 nM; against Cytochrome P450 3A4, 58000 nM; on Cytochrome P450 1A2, 25000 nM.
Consider `CCCCc1ccc(S(=O)(=O)Nc2ccc3c(c2)CCNCC3)cc1`, for which the inhibition constant Ki is 15.8 nM on D(3) dopamine receptor [1]; 158 nM on D(2) dopamine receptor [2]; 15.8 nM in [3]; 50.1 nM in data set [4]; 2 nM in [5].
For `CN1CCc2ccc(NS(=O)(=O)c3ccc(-c4ccc(C#N)cc4)cc3)cc2CC1`, the Ki at D(3) dopamine receptor [1] was 15.8 nM; on D(2) dopamine receptor [2] it was 501 nM; in data set [3] it was 794 nM; in [4], 100 nM; in data set [5] it was 25.1 nM.
On the same counts, the results for `CN1CCc2ccc(NS(=O)(=O)c3ccc(-c4ccc(F)c(Cl)c4)cc3)cc2CC1` are 3.98 nM, 50.1 nM, 50.1 nM, 31.6 nM and 7.94 nM.
For the compound `CN1CCc2ccc(NS(=O)(=O)c3ccc(-c4ccc(Cl)cc4)s3)cc2CC1`, the inhibition constant (Ki) was 39.8 nM on D(3) dopamine receptor [1], 398 nM on D(2) dopamine receptor [2], 126 nM in [4] and 3.98 nM in [5].
Consider `CC(C)c1cc2c(cc1NS(=O)(=O)c1ccc(-c3ccc(Cl)cc3)cc1)CCN(C)CC2`, for which the Ki on D(3) dopamine receptor [1] was 3.98 nM; on D(2) dopamine receptor [2], 100 nM; in data set [3], 5.01 nM; in data set [4], 15.8 nM; in data set [5], 12.6 nM.
On the same counts, the results for `CN1CCc2cc(Cl)c(NS(=O)(=O)c3ccc(-c4ccc(Cl)cc4)cc3)cc2CC1` are 2.51 nM, 39.8 nM, 31.6 nM, 39.8 nM and 50.1 nM.
On the same counts, the results for `Cc1cc2c(cc1NS(=O)(=O)c1ccc(-c3ccc(Cl)cc3)cc1)CCN(C)CC2` are 1.58 nM, 15.8 nM, 20 nM, 79.4 nM and 15.8 nM.
Usually EC50 stands for the concentration at which the effect is half-maximal. A low value points to a more potent agent. What is called ED50 is the dose at which the effect has come halfway, by size or by number of responders. Take `CC(C)Nc1cc2c(cc1NS(=O)(=O)c1ccc(-c3ccc(Cl)cc3)cc1)CCN(C)CC2`: the Ki on D(3) dopamine receptor [1] was 3.16 nM; at D(2) dopamine receptor [2], 50.1 nM; in data set [3], 1.58 nM; in data set [4], 5.01 nM; in data set [5] it was 7.94 nM. Further, the IC50 at Cytochrome P450 2C19 worked out at 25000 nM; against Cytochrome P450 2C9, 17000 nM; at Cytochrome P450 2D6, 19000 nM; against Cytochrome P450 3A4, 7500 nM; on Cytochrome P450 1A2, 51000 nM. Also, the concentration for a half-maximal effect (EC50) on D(3) dopamine receptor [6] was over 10000 nM; on D(2) dopamine receptor [7], over 10000 nM; in data set [10], over 12600 nM; in data set [11], over 12600 nM; in data set [12] it was over 25100 nM. The ED50 with Rattus norvegicus [8] came to 20.6 mg/kg. Further, the Activity result with Rattus norvegicus [9] is listed as “Not Active”.
In the case of `Cc1noc(C)c1-c1ccc(S(=O)(=O)Nc2ccc3c(c2)CCN(C)CC3)cc1`, the Ki was 15.8 nM on D(3) dopamine receptor [1]; 100 nM on D(2) dopamine receptor [2]; 1260 nM in [3]; 398 nM in data set [4]; 10 nM in data set [5].
On the same counts, the results for `Cc1cc(S(=O)(=O)Nc2ccc3c(c2)CCN(C)CC3)ccc1-c1ccc(Cl)cc1` are 6.31 nM, 31.6 nM, 126 nM, 50.1 nM and 5.01 nM.
Consider `CN1CCc2cc(Br)c(NS(=O)(=O)c3ccc(-c4ccc(Cl)cc4)cc3)cc2CC1`, for which the inhibition constant (Ki) is 5.01 nM at D(3) dopamine receptor [1], 63.1 nM on D(2) dopamine receptor [2], 126 nM in data set [4] and 50.1 nM in data set [5].
With `CCCCc1ccc(S(=O)(=O)Nc2ccc3c(c2)CNCC3)cc1`, the Ki on D(3) dopamine receptor [1] is 12.6 nM and 10 nM; at D(2) dopamine receptor [2], 794 nM and 1000 nM; in [3], 12.6 nM; in data set [4] it was 31.6 nM; in data set [5], 25.1 nM. Also, the “Log Ki” value in data set [3] is -7.9; in data set [4], -7.5; in data set [5] it was -7.6.
Consider `CCCCc1ccc(S(=O)(=O)Nc2ccc3c(c2)CN(C)CC3)cc1`, for which the inhibitory constant (Ki) is 25.1 nM on D(3) dopamine receptor [1] and 398 nM at D(2) dopamine receptor [2].
Regarding `CCCCc1ccc(S(=O)(=O)Nc2ccc3c(c2)CCN(C)CC3)cc1`, the Ki at D(3) dopamine receptor [1] was 2 nM; at D(2) dopamine receptor [2], 31.6 nM; in data set [3] it was 5.01 nM; in data set [4] it was 10 nM; in data set [5] it was 1.26 nM. The half-maximal inhibitory concentration (IC50) on Cytochrome P450 2C19 is 500 nM; against Cytochrome P450 2C9, 47000 nM; at Cytochrome P450 2D6, 1600 nM; on Cytochrome P450 3A4, 12000 nM; against Cytochrome P450 1A2, 23000 nM.
